According to ChEMBL document CHEMBL1201862, “PubChem BioAssay data set” (2004):
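Grown in 96-well plates, cells were treated for 48 hours with each compound at five concentrations. Insufficient inhibition: endpoint recorded as highest concentration tested. GI50 is the concentration that inhibits growth by half.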 Activity calls are given as the source filed them. No stated cut-off is given here; in the data, active = GI50 up to about 1.1 µM and inactive = higher.

Key:
Assay in all cases: NCI anticancer screen, dose series, 48 h
ACHN = system: ACHN
SW-620 = system: SW-620
SK-MEL-28 = system: SK-MEL-28
NCI-H226 = system: NCI-H226
SF-295 = system: SF-295
COLO 205 = system: COLO 205
PC-3 = system: PC-3
IGROV-1 = system: IGROV-1
MCF7 = system: MCF7
TK-10 = system: TK-10
NCI-H460 = system: NCI-H460
HT-29 = system: HT-29
OVCAR-5 = system: OVCAR-5
UO-31 = system: UO-31
SR = system: SR
U-251 = system: U-251
BT-549 = system: BT-549
HL-60 = system: HL-60
EKVX = system: EKVX
MDA-N = system: MDA-N
NCI-H522 = system: NCI-H522
A549 = system: A549
A498 = system: A498
UACC-257 = system: UACC-257
SN12C = system: SN12C
SK-MEL-5 = system: SK-MEL-5
NCI-H23 = system: NCI-H23
DU-145 = system: DU-145
LOX IMVI = system: LOX IMVI
KM12 = system: KM12
CAKI-1 = system: CAKI-1
SNB-75 = system: SNB-75
HOP-62 = system: HOP-62
HCT-15 = system: HCT-15
RXF 393 = system: RXF 393
RPMI-8226 = system: RPMI-8226
CCRF-CEM = system: CCRF-CEM
M14 = system: M14
HCC 2998 = system: HCC 2998
786-0 = system: 786-0
T47D = system: T47D
SF-539 = system: SF-539
OVCAR-4 = system: OVCAR-4
OVCAR-3 = system: OVCAR-3
UACC-62 = system: UACC-62
HOP-92 = system: HOP-92
SF-268 = system: SF-268
SK-MEL-2 = system: SK-MEL-2
SK-OV-3 = system: SK-OV-3
HCT-116 = system: HCT-116
Hs-578T = system: Hs-578T
MOLT-4 = system: MOLT-4
K562 = system: K562
SNB-19 = system: SNB-19
MDA-MB-435 = system: MDA-MB-435
MDA-MB-231 = system: MDA-MB-231
OVCAR-8 = system: OVCAR-8
Malme-3M = system: Malme-3M

`CCOC(=O)c1cc2c(C(=O)c3ccc([N+](=O)[O-])cc3)c(C(C)=O)ccc2[nH]1` was tested, and the GI50 (ACHN) was 28.7 µM (inactive), the GI50 (SW-620) was > 100 µM (inactive) and the GI50 (SK-MEL-28) was > 100 µM (inactive). The GI50 (NCI-H226) was 51.4 µM (inactive), the GI50 (SF-295) was 23.6 µM (inactive) and the GI50 (COLO 205) was > 100 µM (inactive). The GI50 (PC-3) was > 100 µM (inactive), the GI50 (IGROV-1) was 26.9 µM (inactive) and the GI50 (MCF7) was > 100 µM (inactive). For the same compound, the GI50 (TK-10) was 22.2 µM (inactive), the GI50 (NCI-H460) was 82.6 µM (inactive) and the GI50 (HT-29) was > 100 µM (inactive). The GI50 (OVCAR-5) was > 100 µM (inactive), the GI50 (UO-31) was > 100 µM (inactive) and the GI50 (SR) was > 100 µM (inactive). The GI50 (U-251) was 9.51 µM (inactive), the GI50 (BT-549) was 38.5 µM (inactive) and the GI50 (HL-60) was > 100 µM (inactive). For the same compound, the GI50 (EKVX) was > 100 µM (inactive), the GI50 (MDA-N) was 11.8 µM (inactive) and the GI50 (NCI-H522) was 8.2 µM (inactive). For the same compound, the GI50 (A549) was 39.4 µM (inactive), the GI50 (A498) was 50.5 µM (inactive) and the GI50 (UACC-257) was > 100 µM (inactive). The GI50 (SN12C) was 72.8 µM (inactive), the GI50 (SK-MEL-5) was 16.6 µM (inactive) and the GI50 (NCI-H23) was 50.2 µM (inactive). The GI50 (DU-145) was 32.7 µM (inactive), the GI50 (LOX IMVI) was 99.8 µM (inactive) and the GI50 (KM12) was > 100 µM (inactive). For the same compound, the GI50 (CAKI-1) was 18.3 µM (inactive), the GI50 (SNB-75) was 11.6 µM (inactive) and the GI50 (HOP-62) was 4.43 µM (inactive). The GI50 (HCT-15) was 50 µM, the GI50 (RXF 393) was 15.2 µM (inactive) and the GI50 (RPMI-8226) was > 100 µM (inactive). The GI50 (CCRF-CEM) was > 100 µM (inactive), the GI50 (M14) was > 100 µM (inactive) and the GI50 (HCC 2998) was > 100 µM (inactive). For the same compound, the GI50 (786-0) was 7.36 µM (inactive), the GI50 (T47D) was 29.9 µM (inactive) and the GI50 (SF-539) was 17.8 µM (inactive). For the same compound, the GI50 (OVCAR-4) was 5.52 µM (inactive), the GI50 (OVCAR-3) was > 100 µM (inactive) and the GI50 (UACC-62) was > 100 µM (inactive). For the same compound, the GI50 (HOP-92) was 13.2 µM (inactive), the GI50 (SF-268) was 8.3 µM (inactive) and the GI50 (SK-MEL-2) was 55.8 µM (inactive). The GI50 (SK-OV-3) was 9.06 µM (inactive), the GI50 (HCT-116) was 45.6 µM (inactive) and the GI50 (Hs-578T) was 9.84 µM (inactive). For the same compound, the GI50 (MOLT-4) was > 100 µM (inactive), the GI50 (K562) was 26.7 µM (inactive) and the GI50 (SNB-19) was 22.1 µM (inactive). For the same compound, the GI50 (MDA-MB-435) was 7.66 µM (inactive) and the GI50 (MDA-MB-231) was 16.9 µM (inactive).

For `COc1oc(C2C/C(=C/C(C)=C/C(C)=C/C(C)=C/c3ccc([N+](=O)[O-])cc3)CO2)c(C)c(=O)c1C` (centres undefined), the GI50 (ACHN) was 1.12 µM (active), the GI50 (SW-620) was 9.1 µM (inactive) and the GI50 (SK-MEL-28) was 6.1 µM (inactive). For the same compound, the GI50 (NCI-H226) was 7.28 µM (inactive), the GI50 (SF-295) was 2.47 µM (inactive) and the GI50 (OVCAR-8) was 1.52 µM (inactive). The GI50 (COLO 205) was 3.55 µM (inactive), the GI50 (PC-3) was 2.02 µM (inactive) and the GI50 (IGROV-1) was 13.2 µM (inactive). The GI50 (MCF7) was 1.59 µM (inactive), the GI50 (TK-10) was 10 µM (inactive) and the GI50 (NCI-H460) was 1.26 µM (inactive). For the same compound, the GI50 (HT-29) was 3.14 µM (inactive), the GI50 (OVCAR-5) was 47.4 µM (inactive) and the GI50 (UO-31) was 5.2 µM (inactive). For the same compound, the GI50 (SR) was < 0.01 µM (active), the GI50 (U-251) was 6.27 µM (inactive) and the GI50 (BT-549) was 2.73 µM (inactive). For the same compound, the GI50 (HL-60) was 1.68 µM (inactive), the GI50 (EKVX) was 2.58 µM (inactive) and the GI50 (MDA-N) was 2.74 µM (inactive). For the same compound, the GI50 (Malme-3M) was 3.61 µM (inactive), the GI50 (NCI-H522) was 0.344 µM (active) and the GI50 (A549) was 1.74 µM (inactive). The GI50 (A498) was 6.89 µM (inactive), the GI50 (UACC-257) was 5.32 µM (inactive) and the GI50 (SN12C) was 2.57 µM (inactive). For the same compound, the GI50 (SK-MEL-5) was < 0.01 µM (active), the GI50 (NCI-H23) was 1.79 µM (inactive) and the GI50 (DU-145) was 8.2 µM (inactive). For the same compound, the GI50 (LOX IMVI) was 4.02 µM (inactive), the GI50 (KM12) was 1.58 µM (inactive) and the GI50 (CAKI-1) was 12.5 µM (inactive). The GI50 (SNB-75) was 15.4 µM (inactive), the GI50 (HOP-62) was 19.9 µM (inactive) and the GI50 (HCT-15) was 5.64 µM. For the same compound, the GI50 (RXF 393) was 17.9 µM (inactive), the GI50 (RPMI-8226) was 0.55 µM (active) and the GI50 (CCRF-CEM) was 2.63 µM (inactive). For the same compound, the GI50 (M14) was 6.03 µM (inactive), the GI50 (HCC 2998) was 22.4 µM (inactive) and the GI50 (786-0) was 5.64 µM (inactive). For the same compound, the GI50 (T47D) was 1.04 µM (active), the GI50 (SF-539) was 12 µM (inactive) and the GI50 (OVCAR-4) was 3.5 µM (inactive). The GI50 (OVCAR-3) was 11.1 µM (inactive), the GI50 (UACC-62) was 5 µM (inactive) and the GI50 (HOP-92) was 6.95 µM (inactive). The GI50 (SF-268) was 10.3 µM (inactive), the GI50 (SK-MEL-2) was 23.9 µM (inactive) and the GI50 (SK-OV-3) was 12.9 µM (inactive). For the same compound, the GI50 (HCT-116) was < 0.01 µM (active), the GI50 (Hs-578T) was 5.89 µM (inactive) and the GI50 (MOLT-4) was 1.67 µM (inactive). The GI50 (K562) was < 0.01 µM (active), the GI50 (SNB-19) was 15.9 µM (inactive) and the GI50 (MDA-MB-435) was 3.01 µM (inactive). The GI50 (MDA-MB-231) was 15.8 µM (inactive).
